Measured values as given in patent publication US20020137929A1, “1 - (3-heterocyclylphenyl) isothiourea, -isourea, -guanidine and -amidine herbicidal agents” (Intellectual Property Department, BASF Aktiengesellschaft, priority 1998, published 2002).

Legend:
[1] = test system: ORYSAT (Rice, Tebonnet); experiment: Postemergence herbicidal evaluation; assay type: in vivo, Oryza sativa, (L.) Tebonnet; conditions: postemergence
Summary of the method: (§1)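 Visual 0–9 rating versus control (stand, vigor, malformation, size, chlorosis, overall appearance), taken four to five weeks post-spray. Two-week-old seedlings received roughly 0.0156–0.500 kg/ha active in acetone/water (50/50) with 0.5% TWEEN 20 via nozzle at 40 psi.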

[2] = test system: CYPIR (Rice Flatsedge); experiment: Preemergence weed control under flooded paddy conditions; assay type: in vivo, Cyperus iria; conditions: rated 3-4 weeks after treatment
Summary of the method: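 Herbicidal effect is scored visually on a 0-9 scale against an untreated control, three to four weeks after compounds are pipetted into the flood water (1.5 to 3 cm deep) over seeds planted in silt loam at 0.5 cm depth. Rates: about 0.0313 to 0.500 kg/ha.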

[3] = test system: SETVI (Foxtail, Green); experiment: Preemergence herbicidal evaluation; assay type: in vivo, Setaria viridis; conditions: rated 4-5 weeks after treatment
Summary of the method: (§2)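 Visual 0-9 rating vs control (stand, vigor, malformation, size, chlorosis, overall appearance), scored 4-5 wk after spraying. Seeded soil cups were treated preemergence with compound in aqueous acetone, ~0.0156-0.500 kg/ha equivalent.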

[4] = test system: AMBEL (Ragweed, Common); experiment: Preemergence herbicidal evaluation; assay type: in vivo, Ambrosia artemisifolia; conditions: rated 4-5 weeks after treatment
Summary of the method: as §2

[5] = test system: TRZAWR (Wheat, Winter, cv Riband); experiment: Postemergence herbicidal evaluation; assay type: in vivo, Triticum aestivum; conditions: postemergence
Summary of the method: as §1

[6] = test system: ZEAMX (Corn, Field); experiment: Postemergence herbicidal evaluation; assay type: in vivo, Zea mays; conditions: postemergence
Summary of the method: as §1

[7] = test system: GLXMAW (Soybean, Williams); experiment: Postemergence herbicidal evaluation; assay type: in vivo, Glycine max, (L.) Merr. cv Williams; conditions: postemergence
Summary of the method: as §1

[8] = test system: ABUTH (Velvetleaf); experiment: Postemergence herbicidal evaluation; assay type: in vivo, Abutilon theophrasti; conditions: postemergence
Summary of the method: as §1

[9] = test system: SETVI (Foxtail, Green); experiment: Postemergence herbicidal evaluation; assay type: in vivo, Setaria viridis; conditions: postemergence
Summary of the method: as §1

[10] = test system: GALAP (Galium); experiment: Preemergence herbicidal evaluation; assay type: in vivo, Galium aparine; conditions: rated 4-5 weeks after treatment
Summary of the method: as §2

[11] = test system: CHEAL (Lambsquarters, Common); experiment: Postemergence herbicidal evaluation; assay type: in vivo, Chenopodium album; conditions: postemergence
Summary of the method: as §1

[12] = rate 0.1250 kg/ha, rating scale 0-9
[13] = rate 0.2500 kg/ha, rating scale 0-9
[14] = rate 0.0625 kg/ha, rating scale 0-9

Row | SMILES | herbicidal rating ORYSAT ([1]; rate 0.0156 kg/ha) | herbicidal rating ORYSAT ([1]; rate 0.0313 kg/ha) | herbicidal rating ORYSAT ([1]; rate 0.0625 kg/ha) | herbicidal effect rating, CYPIR ([2]; 0.2500 kg/ha) | herbicidal rating TRZAWR ([5]; rate 0.0156 kg/ha) | herbicidal rating TRZAWR ([5]; rate 0.0313 kg/ha) | herbicidal rating TRZAWR ([5]; rate 0.0625 kg/ha) | herbicidal rating ZEAMX ([6]; rate 0.0156 kg/ha) | herbicidal rating ZEAMX ([6]; rate 0.0313 kg/ha) | herbicidal rating ZEAMX ([6]; rate 0.0625 kg/ha) | herbicidal rating GLXMAW ([7]; rate 0.0156 kg/ha) | herbicidal rating GLXMAW ([7]; rate 0.0313 kg/ha) | herbicidal rating GLXMAW ([7]; rate 0.0625 kg/ha) | herbicidal rating ABUTH ([8]; rate 0.0156 kg/ha) | herbicidal rating ABUTH ([8]; rate 0.0313 kg/ha) | herbicidal rating ABUTH ([8]; rate 0.0625 kg/ha) | herbicidal rating SETVI ([9]; rate 0.0156 kg/ha) | herbicidal rating SETVI ([9]; rate 0.0625 kg/ha) | herbicidal rating CHEAL ([11]; rate 0.0156 kg/ha) | herbicidal rating CHEAL ([11]; rate 0.0313 kg/ha) | further results
1 | Cn1c(C(F)(F)F)cc(=O)n(-c2cc(N=C3SCC(=O)N3CC(F)(F)F)c(Cl)cc2F)c1=O [Compound 163, 3-{4-Chloro-2-fluoro-5-{[4-oxo-3-(2,2,2-trifluoroethyl)-2-thiazolidinylidene]amino}phenyl}-1-methyl-6-(trifluoromethyl)-2,4(1H,3H)-pyrimidinedione] | 1.0 | 1.5 | 2.0 | 9.0 | 3.5 | 4.0 | 4.5 | 5.0 | 5.5 | 5.5 | 6.0 | 7.0 | 8.0 | 9.0 | 9.0 | 9.0 | 0.0 | 3.0 | 9.0 | 9.0 | herbicidal effect rating, CYPIR ([2]; 0.0313 kg/ha): 6.0; herbicidal effect rating, CYPIR ([2]; 0.0625 kg/ha): 7.0; herbicidal effect rating, CYPIR ([2]; 0.1250 kg/ha): 9.0; Preemergence herbicidal rating SETVI ([3]; 0.0156 kg/ha): 9.0; Preemergence herbicidal rating SETVI ([3]; 0.0313 kg/ha): 9.0; Preemergence herbicidal rating SETVI ([3]; 0.0625 kg/ha): 9.0; Preemergence herbicidal rating SETVI ([3]; 0.1250 kg/ha): 9.0; Preemergence herbicidal rating SETVI ([3]; 0.2500 kg/ha): 9.0; Preemergence herbicidal rating AMBEL ([4]; 0.0156 kg/ha): 0.0; Preemergence herbicidal rating AMBEL ([4]; 0.0313 kg/ha): 3.0; Preemergence herbicidal rating AMBEL ([4]; 0.0625 kg/ha): 9.0; Preemergence herbicidal rating AMBEL ([4]; 0.1250 kg/ha): 9.0; Preemergence herbicidal rating AMBEL ([4]; 0.2500 kg/ha): 9.0; Preemergence herbicidal rating GALAP ([10]; 0.0156 kg/ha): 0.0; Preemergence herbicidal rating GALAP ([10]; 0.0313 kg/ha): 0.0; Preemergence herbicidal rating GALAP ([10]; 0.0625 kg/ha): 0.0; Preemergence herbicidal rating GALAP ([10]; 0.1250 kg/ha): 0.0; Preemergence herbicidal rating GALAP ([10]; 0.2500 kg/ha): 3.0; herbicidal rating CHEAL ([11]; rate 0.0625 kg/ha): 9.0
2 | COc1ccc(CN2C(=O)CSC2=Nc2cc(-n3c(=O)cc(C(F)(F)F)n(C)c3=O)c(F)cc2Cl)cc1OC [Compound 134, 3-{4-Chloro-5-{[3-(3,4-dimethoxybenzyl)-4-oxo-2-thiazolidinylidene]amino}-2-fluorophenyl}-1-methyl-6-(trifluoromethyl)-2,4(1H,3H)-pyrimidinedione] | 1.0 | 1.5 | 2.0 | 3.0 | 2.5 | 3.5 | 4.0 | 3.5 | 4.5 | 4.5 | 3.5 | 4.0 | 5.0 | 5.0 | 7.0 | 9.0 | 0.0 | 1.0 | 1.0 | 3.0 | Preemergence herbicidal rating SETVI [3, 12]: 0.0; Preemergence herbicidal rating SETVI [3, 13]: 2.0; Preemergence herbicidal rating AMBEL [4, 12]: 0.0; Preemergence herbicidal rating AMBEL [4, 13]: 3.0; herbicidal rating SETVI ([9]; rate 0.0313 kg/ha): 0.0; Preemergence herbicidal rating GALAP [10, 12]: 1.0; Preemergence herbicidal rating GALAP [10, 13]: 0.0; herbicidal rating CHEAL ([11]; rate 0.0625 kg/ha): 4.0
3 | COCCN1C(=O)CSC1=Nc1cc(-n2c(=O)cc(C(F)(F)F)n(C)c2=O)c(F)cc1Cl [Compound 155, 3-{4-Chloro-2-fluoro-5-{[3-(2-methoxyethyl)-4-oxo-2-thiazolidinylidene]amino}phenyl}-1-methyl-6-(trifluoromethyl)-2,4(1H,3H)-pyrimidinedione] | 0.0 | 0.0 | 0.0 | 0.0 | 1.0 | 2.0 | 3.0 | 4.0 | 4.0 | 4.0 | 4.0 | 5.0 | 5.0 | 3.0 | 9.0 | 9.0 | 0.0 | 0.0 | 0.0 | 0.0 | herbicidal effect rating, CYPIR ([2]; 0.0313 kg/ha): 0.0; herbicidal effect rating, CYPIR ([2]; 0.0625 kg/ha): 0.0; herbicidal effect rating, CYPIR ([2]; 0.1250 kg/ha): 0.0; Preemergence herbicidal rating SETVI [3, 14]: 0.0; Preemergence herbicidal rating SETVI [3, 12]: 0.0; Preemergence herbicidal rating SETVI [3, 13]: 0.0; Preemergence herbicidal rating AMBEL [4, 14]: 0.0; Preemergence herbicidal rating AMBEL [4, 12]: 2.0; Preemergence herbicidal rating AMBEL [4, 13]: 4.0; herbicidal rating SETVI ([9]; rate 0.0313 kg/ha): 0.0; Preemergence herbicidal rating GALAP [10, 14]: 4.0; Preemergence herbicidal rating GALAP [10, 12]: 4.0; Preemergence herbicidal rating GALAP [10, 13]: 4.0; herbicidal rating CHEAL ([11]; rate 0.0625 kg/ha): 0.0
